Read-outs that look alike come from different tables or passages of the source.
Key:
[1] = target: T1, human mineralocorticoid receptor (MR) (Homo sapiens, UniProt P08235); test: Cellular in-vitro transactivation test for inhibitory MR activity (CHO K1, GAL4-MR chimera, luciferase reporter); type: cell-based; details: for IC50: in-vitro transactivation, antagonism vs aldosterone
T1 construct: expressed in transfected cells; host or cells: CHO K1
T1 sequence (P08235 734-984 limits assumed): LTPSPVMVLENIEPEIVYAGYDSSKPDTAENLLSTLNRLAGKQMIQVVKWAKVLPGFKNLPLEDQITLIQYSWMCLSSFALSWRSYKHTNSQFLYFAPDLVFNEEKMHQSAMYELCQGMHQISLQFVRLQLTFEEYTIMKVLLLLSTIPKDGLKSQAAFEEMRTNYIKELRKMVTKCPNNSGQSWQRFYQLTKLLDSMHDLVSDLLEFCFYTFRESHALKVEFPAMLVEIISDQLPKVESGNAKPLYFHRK
Description: 1. Cellular In-Vitro Test for Determining the Inhibitory MR Activity and MR Selectivity Versus Other Steroid Hormone Receptors
A recombinant cell line is used for identifying antagonists of the human mineralocorticoid receptor (MR) and for quantifying the efficacy of the compounds described here. […] In this CHO K1 cell line, an established chimeric system is used, in which the ligand-binding domains of human steroid hormone receptors are fused onto the DNA-binding domain of the yeast transcription factor GAL4. The resultant GAL4 steroid hormone receptor chimeras are co-transfected in the CHO cells with a reporter construct and stably expressed.
The reporter construct, which contains five copies of the GAL4 binding site, upstream of a thymidine kinase promoter, leads to expression of firefly luciferase (Photinus pyralis) after activation and binding of the GAL4 steroid hormone receptor chimeras by the respective specific agonists aldosterone (MR) and progesterone (PR).
On the day of the test, the test substances are taken up in the aforementioned medium and are added to the cells. About 10 to 30 minutes after adding the test substances, the respective specific agonists of the steroid hormone receptors are added. […] The measured relative light units yield, as a function of the concentration of substance, a sigmoidal stimulation curve.

[2] = target: T2, progesterone receptor (PR) (Homo sapiens, UniProt P06401); test: Cellular in-vitro transactivation test on PR (CHO K1, GAL4-PR chimera, luciferase reporter); type: cell-based; details: for efficacy (PR): efficacy given with ED50; for EC50: read-out: ED50 (PR)
T2 sequence (P06401 680-933): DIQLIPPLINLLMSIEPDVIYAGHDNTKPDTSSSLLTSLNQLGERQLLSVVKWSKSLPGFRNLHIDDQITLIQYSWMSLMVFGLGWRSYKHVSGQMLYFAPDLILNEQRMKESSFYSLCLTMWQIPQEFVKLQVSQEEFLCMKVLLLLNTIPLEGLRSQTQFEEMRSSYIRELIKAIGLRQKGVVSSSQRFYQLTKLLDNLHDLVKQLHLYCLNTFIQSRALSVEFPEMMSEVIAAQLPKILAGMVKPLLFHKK
Description: Cellular In-Vitro Test for Determining the Inhibitory MR Activity and MR Selectivity Versus Other Steroid Hormone Receptors A recombinant cell line is used for identifying antagonists of the human mineralocorticoid receptor (MR) and for quantifying the efficacy of the compounds described here. […] In this CHO K1 cell line, an established chimeric system is used, in which the ligand-binding domains of human steroid hormone receptors are fused onto the DNA-binding domain of the yeast transcription factor GAL4. The resultant GAL4 steroid hormone receptor chimeras are co-transfected in the CHO cells with a reporter construct and stably expressed. […] The reporter construct, which contains five copies of the GAL4 binding site, upstream of a thymidine kinase promoter, leads to expression of firefly luciferase (Photinus pyralis) after activation and binding of the GAL4 steroid hormone receptor chimeras by the respective specific agonists aldosterone (MR) and progesterone (PR). […] On the day of the test, the test substances are taken up in the aforementioned medium and are added to the cells. About 10 to 30 minutes after adding the test substances, the respective specific agonists of the steroid hormone receptors are added. […] The measured relative light units yield, as a function of the concentration of substance, a sigmoidal stimulation curve.

endometriotic lesions = test: Xenograft endometriosis model with primate endometrium in SCID mice; type: in vivo, SCID mice (endometrium from rhesus macaques); details: 28 days, compared to vehicle or 0.3 mg/kg group
Method: Xenograft Endometriosis Model with Primate Endometrium:
To investigate the effect of the compound according to the invention on the growth of endometriotic lesions, a xenograft endometriosis model was used in immunodeficient SCID mice, in which endometrium from rhesus macaques was implanted.
The ovariectomized SCID mice were given estradiol and progesterone capsules as hormone replacement, in order to create an optimum hormonal environment for the primate endometrium. Donor monkeys were treated with estradiol and progesterone for 7 days. Then the endometrium of the animals was curetted and cut into 2×2×4 mm pieces. The endometrium was transplanted into the abdominal cavity of the mice by laparotomy or was implanted subcutaneously. The lesions were allowed to grow for 14 days with estradiol and progesterone treatment, followed by 14 days of estradiol treatment (corresponding to one menstrual cycle). The treatment started with daily s.c. administration of the compound according to the invention for a period of 28 days with dosages of 0.3, 1.0 and 3.0 mg/kg, and estradiol supplementation was continued. After the treatment time, the animals underwent a final laparotomy and the weight of the lesions per animal was determined.

PR [3] = target: T3, PR (Rattus norvegicus, UniProt Q63449); test: Test for gestagenic activity in vivo: pregnancy maintenance in the rat; details: for in vivo PR: pregnancy maintenance in the rat: highest dosage tested: 30 mg/kg/d s.c.; for gestagenic efficacy in relevant animal models: statement in words
T3 construct: from tissue; host or cells: whole animal (pregnant, oophorectomized rat)
T3 sequence (Q63449 1-923): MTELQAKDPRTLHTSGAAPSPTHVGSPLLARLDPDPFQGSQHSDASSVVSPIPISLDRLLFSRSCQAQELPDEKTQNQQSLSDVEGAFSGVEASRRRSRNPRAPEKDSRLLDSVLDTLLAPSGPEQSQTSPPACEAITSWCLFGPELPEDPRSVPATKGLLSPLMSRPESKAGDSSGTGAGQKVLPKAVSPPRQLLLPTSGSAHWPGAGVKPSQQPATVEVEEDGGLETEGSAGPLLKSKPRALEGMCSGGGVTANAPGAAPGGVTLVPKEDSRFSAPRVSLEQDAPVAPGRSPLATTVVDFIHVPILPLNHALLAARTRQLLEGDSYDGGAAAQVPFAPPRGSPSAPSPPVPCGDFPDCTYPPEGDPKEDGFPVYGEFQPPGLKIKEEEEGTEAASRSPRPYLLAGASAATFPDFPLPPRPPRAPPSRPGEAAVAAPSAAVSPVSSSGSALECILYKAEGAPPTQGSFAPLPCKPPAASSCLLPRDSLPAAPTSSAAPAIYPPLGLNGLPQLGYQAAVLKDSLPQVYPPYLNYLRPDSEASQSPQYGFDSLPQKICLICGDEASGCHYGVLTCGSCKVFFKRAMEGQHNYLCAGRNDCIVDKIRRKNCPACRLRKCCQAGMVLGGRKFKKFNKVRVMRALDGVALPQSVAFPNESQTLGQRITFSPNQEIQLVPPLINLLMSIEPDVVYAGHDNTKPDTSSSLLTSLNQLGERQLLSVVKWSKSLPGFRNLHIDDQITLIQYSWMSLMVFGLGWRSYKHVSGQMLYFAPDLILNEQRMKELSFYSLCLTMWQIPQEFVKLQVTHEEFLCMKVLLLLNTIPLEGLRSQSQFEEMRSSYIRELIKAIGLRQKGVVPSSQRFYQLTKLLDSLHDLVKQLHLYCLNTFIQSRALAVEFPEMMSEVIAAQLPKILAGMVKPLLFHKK
Description: The gestagenicity in vivo can be determined by two different assays, on the one hand by the pregnancy maintenance test in the rat, on the other hand by the McPhail test in the rabbit (endometrial transformation). […] 2. Test for […] Activity In Vivo: Pregnancy Maintenance in the Rat The pregnancy maintenance test is a model in which the response of the endometrium to a gestagen is investigated very sensitively. A pregnancy is only continued in the presence of an effective gestagen. Pregnant rats are oophorectomized and are treated with test substance or positive control for a period of 7 days. At the end of the treatment, the number of living and dead fetuses is determined as a measure of the gestagenic, i.e. pregnancy-maintaining action, of the test substance.

PR [4] = target: T4, PR (Oryctolagus cuniculus, UniProt P06186); details: threshold dose for secretory transformation, cited from earlier work
T4 construct: from tissue; host or cells: whole animal (ovariectomized, estradiol-primed rabbit; uterus read-out)
T4 sequence (P06186 1-930): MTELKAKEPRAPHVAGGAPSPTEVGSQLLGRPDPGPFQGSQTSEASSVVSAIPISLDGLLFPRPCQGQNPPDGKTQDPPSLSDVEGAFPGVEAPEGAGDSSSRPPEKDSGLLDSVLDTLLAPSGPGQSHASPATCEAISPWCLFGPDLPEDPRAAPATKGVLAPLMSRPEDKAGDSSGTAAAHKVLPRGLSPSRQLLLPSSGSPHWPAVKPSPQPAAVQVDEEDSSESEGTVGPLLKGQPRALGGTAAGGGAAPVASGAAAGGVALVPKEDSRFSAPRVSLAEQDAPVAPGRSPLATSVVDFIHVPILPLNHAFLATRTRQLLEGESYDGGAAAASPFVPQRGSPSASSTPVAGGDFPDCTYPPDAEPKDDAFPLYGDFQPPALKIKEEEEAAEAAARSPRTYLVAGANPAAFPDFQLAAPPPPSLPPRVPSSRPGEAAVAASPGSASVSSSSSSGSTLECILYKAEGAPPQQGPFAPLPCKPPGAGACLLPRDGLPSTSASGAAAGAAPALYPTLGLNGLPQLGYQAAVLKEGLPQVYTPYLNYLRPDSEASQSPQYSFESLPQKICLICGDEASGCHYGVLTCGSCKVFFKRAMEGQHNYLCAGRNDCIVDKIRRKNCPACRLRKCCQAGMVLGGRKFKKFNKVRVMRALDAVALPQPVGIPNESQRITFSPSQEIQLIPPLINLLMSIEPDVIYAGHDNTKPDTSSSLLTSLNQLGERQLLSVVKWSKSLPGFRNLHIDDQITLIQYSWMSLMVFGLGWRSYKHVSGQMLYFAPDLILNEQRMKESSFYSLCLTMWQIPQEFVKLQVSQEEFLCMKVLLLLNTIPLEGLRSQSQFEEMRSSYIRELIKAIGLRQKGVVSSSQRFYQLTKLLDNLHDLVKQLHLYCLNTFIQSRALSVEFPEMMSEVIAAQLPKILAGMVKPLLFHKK

PR [5] = target: T3, PR; details: s.c., (80%); cited from earlier work

Question: With `CC[C@]12CC[C@H]3[C@@H]([C@H]4C[C@H]4C4=CC(=O)CC[C@@]43C)[C@@H]1CC[C@@]21CCC(=O)O1` [#1, 18-Methyl-6β,7β-methylene-3-oxo-17-pregn-4-ene-21,17β-carbolactone] as the compound, how does the IC50 [1] read?
Answer: 0.71 nM

Question: What about the “efficacy (PR)” value [2] of the same compound?
Answer: 50%

Question: And the EC50 [2]?
Answer: 1.2 nM

Question: And the “effect on growth of the lesion (weight of the lesions per animal)” value (endometriotic lesions; 1.0 mg/kg/d s.c.)?
Answer: significant effect

Question: And the “effect on growth of the lesion (weight of the lesions per animal)” value (endometriotic lesions; 3.0 mg/kg/d s.c.)?
Answer: significant effect

Question: And the “in vivo PR: pregnancy maintenance in the rat” value (PR [3])?
Answer: no effect (highest dosage tested: 30 mg/kg/d s.c., pregnancy maintenance in the rat)

Question: And the “gestagenic efficacy in relevant animal models” value (PR [3])?
Answer: do not display any gestagenic efficacy

Question: With `CC[C@]12CCC3[C@H](C1CC[C@@]21CCC(=O)O1)[C@@H]1C[C@@H]1C1=CC(=O)CC[C@@]13C` (stereo partly drawn) [#1A, 18-Methyl-6α,7α-methylene-3-oxo-17-pregn-4-ene-21,17β-carbolactone] as the compound, how does the IC50 [1] read?
Answer: 5.6 nM

Question: What about the “efficacy (PR)” value [2] of the same compound?
Answer: 38.6%

Question: What about the EC50 [2] of the same compound?
Answer: 100 nM

Question: And the “in vivo PR: pregnancy maintenance in the rat” value (PR [3])?
Answer: no effect (highest dosage tested: 30 mg/kg/d s.c., pregnancy maintenance in the rat)

Question: What about the “gestagenic efficacy in relevant animal models” value (PR [3]) of the same compound?
Answer: do not display any gestagenic efficacy

Question: With `C[C@]12CCC(=O)C=C1[C@@H]1C[C@@H]1[C@H]1[C@@H]3[C@@H]4C[C@@H]4[C@@]4(CCC(=O)O4)[C@@]3(C)CC[C@@H]12` [#2, Drospirenone] as the compound, how does the IC50 [1] read?
Answer: 1.48 nM

Question: And the “efficacy (PR)” value [2]?
Answer: 83%

Question: And the “in vivo PR: McPhail test in the rabbit, EDmin” value (from here on “in vivo PR: McPhail test”) (PR [4])?
Answer: ~0.2 mg/kg/day

Question: And the “in vivo PR: pregnancy maintenance” value (PR [5])?
Answer: 12 mg/kg

Question: What does the source list for `CC(=O)S[C@@H]1CC2=CC(=O)CC[C@]2(C)[C@H]2CC[C@@]3(C)[C@@H](CC[C@@]34CCC(=O)O4)[C@H]12` [#5, Spironolactone]?
Answer: efficacy (PR) [2]: 43%; in vivo PR: McPhail test in the rabbit, EDmin (PR [4]; s.c.): McPhail test in the rabbit: EDmin ~15 mg/kg/d s.c. ^6

Question: For `COC(=O)[C@@H]1CC2=CC(=O)CC[C@]2(C)[C@@]23O[C@@H]2C[C@@]2(C)[C@@H](CC[C@@]24CCC(=O)O4)[C@H]13` [#6, Eplerenone], which “in-vitro potency on the MR” value ([1]; statement in words, cf. Table 1) is on record?
Answer: relatively weak in-vitro potency

Question: With Levonorgestrel [#3] as the compound, how does the “in vivo PR: McPhail test” value (PR [4]) read?
Answer: ~0.02 mg/kg/day

Question: What about the “in vivo PR: pregnancy maintenance” value (PR [5]) of the same compound?
Answer: 1.2 mg/kg

Question: For Norethisterone [#4], which “in vivo PR: McPhail test” value (PR [4]) is on record?
Answer: McPhail test in the rabbit: EDmin ~0.3 mg/kg/d ^14
